Columns and labels:
[1] = test system: primary human hepatocytes; experiment: Cytotoxicity assay on primary human hepatocytes (CellTiter-Glo, 48 h); format: cell-based; settings: Hepatocyte, cell viability, 48 h incubation
Procedure: Example 26: Cytotoxicity Assay of Compounds on Primary Human Hepatocytes
Primary human hepatocytes were purchased from Biorecamation IVT. Co., Ltd. (lot no.: AKB/S1391); the components of in vitro culture media of primary human cell and suppliers are as follows:
1. Frozen primary human hepatocytes were thawed, then resuspended in a culture medium containing 10% FBS. The cells were transferred into a 96-well plate, at 8×10^4 cells/well, followed by incubating overnight in an incubator at 5% CO2 at 37° C.;
2. […] The test compounds and control drug were added to wells, at 100 μL/well, to form test compound wells or reference wells, and the culture medium containing 10% FBS was added to wells, at 100 μL/well, as negative control. The cells were incubated in an incubator in the presence of 5% CO2 at 37° C. for 48 h.
3. The primary human hepatocytes were washed with PBS (0.1 M, pH=7.4) twice, and were added with CellTiter-Glo reagent at 100 μL/well. Cell-free wells added with CellTiter-Glo reagent at 100 μL/well served as the blank control. The 96-well plate was shaken on a shaker for 5 min, and then left at room temperature for 10 min.
4. The chemiluminescence values were detected using Victor X4 (Perkin Elmer). The chemiluminescence values of the test compound wells were denoted as F(test compound), the chemiluminescence values of the blank control wells were denoted as F(blank), and the chemiluminescence values of the negative control wells were denoted as F(negative control). The cell viabilities at different concentrations were calculated according to the following formula. Each concentration was measured in triplicate to give the average and the standard deviation.
5. The half maximal inhibitory concentration (IC50) of the test compounds to the primary human hepatocytes were calculated using Prism Graph software.

human hepatocytes = experiment: Metabolite study in human hepatocyte incubation system; format: in vitro ADME; settings: 180 min incubation, LC-MS
Procedure: (§1) Example 28: Study on Metabolites of Compound in Human and Rat Hepatocyte Incubation System
(§2) 1. Preparation of Stock and Working Solutions
(§3) Stock solution: A proper amount of test sample powders was dissolved in DMSO or other proper solvents, and the mixture was well mixed to give a stock solution (10 mM). The stock solution was preserved in a refrigerator at 4° C. for later use.
(§4) Working solution: The 10 mM stock solution was diluted to 1 mM working solution using acetonitrile, and well mixed for later use.
(§5) 2. Preparation of Thawing Medium I
(§6) Williams' Medium E, glutamate, HEPES, fetal bovine serum albumin, human recombinant insulin, dexamethasone, and cell separation medium (Percoll™) were mixed in a ratio of 700:10:15:50:1:0.1:300 for use.
(§7) 3. Preparation of Terminating Solution
(§8) An acetonitrile solution containing 0.1% formic acid was prepared as the terminating solution and preserved in a refrigerator at 4° C. for use.
(§9) 4. Isolation and Preparation of Hepatocyte Suspension
(§10) The cryopreserved hepatocytes were thawed in a water bath at 37° C. for about 90 s, and quickly poured into the pre-heated isolating buffer. Residual hepatocytes were washed using the isolating buffer. Cells were combined and mixed well, and centrifuged at room temperature for 5 min at 100×g. The supernatant was discarded and the cells were resuspended using pre-heated William' Medium E. 20 μL of hepatocyte suspension was added into 100 μL of 0.4% Trypan blue. The cells were counted, and a cell viability over 70% was required. The hepatocyte density was adjusted to 1.25×10^6 cells/mL using William' Medium E.
(§11) 5. Incubation and Treatment of Samples
(§12) 1) The test compound working solution was pre-incubated (pre-heated) in a constant-temperature incubator at 37° C. for 10 min. 2 μL of the working solution (1 mM) was pipetted to a cell culture plate containing 160 μL of hepatocyte suspension at 1.25×10^6 cells/mL, and the mixture was well mixed. 38 μL of Williams' Medium E was added. The mixture was well mixed and incubated in an incubator (in a total volume of 200 μL), and the timer was started. For the blank control, […] of Williams' Medium E was added instead of the working solution. For 0-min samples, 400 μL of acetonitrile (containing 0.1% formic acid) was added, followed by the working solution and Williams' Medium E.
(§13) 2) After 180 min of incubation, the samples were measured for the cell viability. Then 400 μL of acetonitrile (containing 0.1% formic acid) solution was added to terminate the reaction.
(§14) 3) After the reaction was terminated, the plate was shaken on a shaker at 300 rpm for 10 min, followed by centrifugation at least 10000×g for at least 10 min. After centrifugation, the supernatant was all transferred to centrifuge tubes and dried with nitrogen.
(§15) 4) The residues were re-dissolved in a suitable solvent, and centrifuged at least 10000×g for at least 15 min at room temperature. The supernatant was transferred to a sample analysis plate for LC-MS analysis.
(§16) 5) The methodology for 7-ethoxycoumarin (30 μM) was the same as that of test samples. Samples of the test compounds after incubation were used for metabolite assay only when the target metabolite was detected in the positive control sample. Otherwise, the above experiment should be repeated.
(§17) 6. Data Acquisition and Analysis […]

rat hepatocytes = experiment: Metabolite study in rat hepatocyte incubation system; format: in vitro ADME; settings: 180 min incubation, LC-MS
Procedure: as §1, §2, §3, §4, §5, §6, §7, §8, §9, §10, §11, §12, §13, §14, §15, §16, §17

[2] = Pharmacokinetics in male SD rats (i.v. and p.o.); format: in vivo; settings: Sprague-Dawley (SD), rat, plasma, po, p.o. 10 mg/kg vs i.v. 1 mg/kg
Procedure: Example 29: Pharmacokinetics
Methodology for pharmacokinetics of compounds in rats:
1. Male SD rats were acclimatized in the animal room for 7 days after arrival.
2. Six SD rats were randomized into 2 groups, with 3 animals in each group. One group was administered by oral gavage (p.o.), and the other group was treated via tail vein injection (i.v.). Rats in the p.o. group were deprived of food overnight before administration.
3. After administration, about 200 μL of blood was collected from the orbital venous plexus at various time points.
4. The collected blood samples were centrifuged at 12000 rpm for 5 min at 4° C., and then the upper plasma samples were collected and preserved in a refrigerator at −20° C.
5. The procedures were summarized as follows:
6. LC-MS/MS (UPLC-MS/MS: liquid chromatography Waters Acquity UPLC (USA) and mass spectrometry 5500 Q Trap (Applied Biosystem/MDS SCIEX) or HPLC-MS\MS: liquid chromatography Agilent 1200 series (USA) and mass spectrometry API 4000 (Applied Biosystem/MDS SCIEX)) were used to determine the concentration of the compound in the plasma.
The pharmacokinetic parameters were calculated using the pharmacokinetic software WinNonlin [Model: Phoenix™ WinNonlin® 6.1; Manufacturer: Pharsight Corporation]. [Phoenix 1.1 User's Guide: p 251-p 300]

bioavailability [2]	Compound	IC50 [1]	toxic metabolites of benzbromarone type (human hepatocytes)	toxic metabolites of benzbromarone type (rat hepatocytes)
> 30%	CCc1nc2ncccn2c1C(=O)c1cc(Br)c(O)c(Br)c1 [Example 20, 2,6-dibromo-4-([2-ethylimidazo[1,2-a]pyrimidin-3-yl]carbonyl) phenol]		not observed	not observed
> 30%	CCc1nc2cc(Cl)ncn2c1C(=O)c1cc(Br)c(O)c(Br)c1 [Example 21, (7-chloro-2-ethylimidazo[1,2-f]pyrimidin-3-yl)(3,5-dibromo-4-hydroxyphenyl)methanone]	347 µM	not observed	not observed

Further lines, the compound ahead of its results:

Compound	bioavailability [2]	IC50 [1]	toxic metabolites of benzbromarone type (human hepatocytes)	toxic metabolites of benzbromarone type (rat hepatocytes)
CCc1nc2ncc(F)cn2c1C(=O)c1cc(Br)c(O)c(Br)c1 [Example 4, (3,5-dibromo-4-hydroxyphenyl)(2-ethyl-6-fluoroimidazo[1,2-a]pyrimidin-3-yl)methanone]	> 30%	257 µM	not observed	not observed
CCc1nc2ncc(C(F)(F)F)cn2c1C(=O)c1cc(Br)c(O)c(Br)c1 [Example 5, (3,5-dibromo-4-hydroxyphenyl)(2-ethyl-6-(trifluoromethyl)imidazo[1,2-a]pyrimidin-3-yl)methanone]	> 30%	77.8 µM	not observed	not observed
CCc1nc2ncc(F)cn2c1C(=O)c1cc(Br)c(O)c(C#N)c1 [Example 14, 3-bromo-5-(2-ethyl-6-fluoroimidazo[1,2-a]pyrimidine-3-carbonyl)-2-hydroxybenzonitrile]	> 30%	≥ 1000 µM	not observed	not observed

Reference: patent US11453674B2, “Heterocyclic compound, preparation method and use thereof in medicine” (SUZHOU SINOVENT PHARMACEUTICALS CO., LTD., priority 2019, dated 2022)
